In experiment [1] the test system is Staphylococcus aureus (RA) ATCC25923. The settings on record: for MIC: Staphylococcus aureus (RA) ATCC25923, >25 means greater than or equal to 50 μg/mL; for inhibitory effect / antiseptic activity in words: against Staphylococcus aureus (RA) ATCC25923 and/or Escherichia coli ATCC25922.
Experiment [2] deals with Escherichia coli (E. coli) ATCC25922. The settings on record: >25 means greater than or equal to 50 μg/mL.
Experiment [3] deals with Pseudomonas aeruginosa. Conditions: Pseudomonas aeruginosa, strain not specified (Table 8).
Experiment [4] concerns Staphylococcus aureus.
The test system of experiment [5] is Escherichia coli.
The test system of experiment [6] is Methicillin-resistant Staphylococcus aureus (MRSA). Conditions: Methicillin-resistant Staphylococcus aureus (Table 8).
Where [7] appears, read: Staphylococcus aureus (methicillin-sensitive), strain not specified (Table 8).
Setting [8] is: Escherichia coli, strain not specified (Table 8).
[9] abbreviates: standard Staphylococcus aureus (Table 2).
Setting [10] is: standard Escherichia coli (Table 2).

Read-outs that look alike come from different tables or passages of the source. No end group written: not given here.

As to “ARLLRIFFIRIARLLRIF [Ctryamp polypeptide mutant 27, ARLLRIFFIRIARLLRIF]”, the MIC in experiment [1] and in experiment [2] was more than 25 µg/mL throughout.

With “Ac-FIRIARLLRIF [Ctryamp polypeptide mutant 32, Ac-FIRIARLLRIF]”, the minimum inhibitory concentration (MIC) in experiment [1] was 6.25 µg/mL; in experiment [2], 25 µg/mL. Also, the “inhibitory effect / antiseptic activity in words” value in experiment [1] is “still have the antiseptic activity”.

For the substance “FFIRIARLLRIF [Ctryamp polypeptide mutant 21, FFIRIARLLRIF]”, the MIC came out at 12.5 µg/mL in experiment [1] and 25 µg/mL in experiment [2].

As for “FIGAIARLLRKIF [ABP-W1, reference compound]”, the “Minimum inhibitory concentration MIC” value in experiment [3] is more than 100 µg/mL; in experiment [4] (setting [7]) it was 3.13 µg/mL; in experiment [5] (setting [8]), more than 100 µg/mL; in experiment [6] it was 8 µg/mL.

With “FIGAIARLLSKIF [BmKAMP1, reference compound]”, the “Minimum inhibitory concentration MIC” value is more than 100 µg/mL in experiment [3], 3.13 µg/mL in experiment [4] (setting [7]), more than 100 µg/mL in experiment [5] (setting [8]) and 12.5 µg/mL in experiment [6].

As to FIHIAHLLRIF [Ctryamp-5, FIHIAHLLRIF], the “Minimum inhibitory concentration MIC” value in experiment [4] (setting [9]) came to 12.5 µg/mL; in experiment [5] (setting [10]) it was 6.25 µg/mL.

Take FIHIAKLLRIF [Ctryamp-7, FIHIAKLLRIF]: the “Minimum inhibitory concentration MIC” value in experiment [4] (setting [9]) came to 6.25 µg/mL; in experiment [5] (setting [10]), 12.5 µg/mL.

As for FIHIARLLHIF [Ctryamp-6, FIHIARLLHIF], the “Minimum inhibitory concentration MIC” value in experiment [4] (setting [9]) and in experiment [5] (setting [10]) was 6.25 µg/mL each time.

In the case of FIHIARLLRIF [Ctryamp-R3H, FIHIARLLRIF], the “Minimum inhibitory concentration MIC” value in experiment [4] (setting [9]) and in experiment [5] (setting [10]) was 6.25 µg/mL in each case.

For FIKIAKLLKIF [Ctryamp-4, FIKIAKLLKIF], the results for the “Minimum inhibitory concentration MIC” value in experiment [4] (setting [9]) and in experiment [5] (setting [10]) were 12.5 µg/mL and 6.25 µg/mL, respectively. The MIC was found to be 25 µg/mL in experiment [1] and 12.5 µg/mL in experiment [2].

Regarding FIKIAKLLRIF [Ctryamp-1, FIKIAKLLRIF], the “Minimum inhibitory concentration MIC” value in experiment [4] (setting [9]) and in experiment [5] (setting [10]) was 6.25 µg/mL each time.

As for FIKIARLLKIF [Ctryamp-2, FIKIARLLKIF], the entries for the “Minimum inhibitory concentration MIC” value in experiment [4] (setting [9]) and in experiment [5] (setting [10]) were 12.5 µg/mL and 6.25 µg/mL, respectively. For the same substance, the MIC in experiment [1] and in experiment [2] was 12.5 µg/mL each time.

For FIKIARLLRIF [Ctryamp-R3K, FIKIARLLRIF], the “Minimum inhibitory concentration MIC” value in experiment [4] (setting [9]) was found to be 6.25 µg/mL; in experiment [5] (setting [10]), 12.25 µg/mL.

With “FIKIGKILKIF [Ctryamp polypeptide mutant 7, FIKIGKILKIF]”, the MIC was more than 25 µg/mL in experiment [1] and 12.5 µg/mL in experiment [2].

With “FIKIGKLLKIF [Ctryamp polypeptide mutant 6, FIKIGKLLKIF]”, the MIC in experiment [1] is 25 µg/mL; in experiment [2], 12.5 µg/mL.

Turning to “FIKRIARLLRIF [Ctryamp polypeptide mutant 20, FIKRIARLLRIF]”, the minimal inhibitory concentration (MIC) in experiment [1] and in experiment [2] was 6.25 µg/mL throughout.

With “FIKRIARLLRKIF [BmKAMP1-M, reference compound]”, the “Minimum inhibitory concentration MIC” value in experiment [3] is 50 µg/mL; in experiment [4] (setting [7]), 12.5 µg/mL; in experiment [5] (setting [8]), 12.5 µg/mL; in experiment [6] it was 6.25 µg/mL.

For the substance “FIRARLLRIF [Ctryamp polypeptide mutant 10, FIRARLLRIF]”, the MIC in experiment [1] and in experiment [2] was more than 25 µg/mL in each case.

“FIRIADLLRIF [Ctryamp polypeptide mutant 2, FIRIADLLRIF]”: the MIC in experiment [1] was 25 µg/mL; in experiment [2] it was more than 25 µg/mL.

FIRIAHLLRIF [Ctryamp-R5H, FIRIAHLLRIF]: the figures for the “Minimum inhibitory concentration MIC” value in experiment [4] (setting [9]) and in experiment [5] (setting [10]) were 6.25 µg/mL and 12.5 µg/mL, respectively.

Regarding FIRIAKLLHIF [Ctryamp-8, FIRIAKLLHIF], the results for the “Minimum inhibitory concentration MIC” value in experiment [4] (setting [9]) and in experiment [5] (setting [10]) were 6.25 µg/mL and 12.5 µg/mL, respectively.

FIRIAKLLKIF [Ctryamp-3, FIRIAKLLKIF]: the “Minimum inhibitory concentration MIC” value in experiment [4] (setting [9]) amounted to 6.25 µg/mL; in experiment [5] (setting [10]), 12.5 µg/mL. The MIC in experiment [1] and in experiment [2] was 12.5 µg/mL each time.

For FIRIAKLLRIF [Ctryamp-R5K, FIRIAKLLRIF], the “Minimum inhibitory concentration MIC” value in experiment [4] (setting [9]) and in experiment [5] (setting [10]) was 6.25 µg/mL each time.

Regarding “FIRIARLLEIF [Ctryamp polypeptide mutant 1, FIRIARLLEIF]”, in experiment [1], the MIC is more than 25 µg/mL and the “inhibitory effect / antiseptic activity in words” value is given as “no antiseptic activity”. The substance further displayed an MIC in experiment [2] of more than 25 µg/mL.

For FIRIARLLHIF [Ctryamp-R9H, FIRIARLLHIF], the “Minimum inhibitory concentration MIC” value in experiment [4] (setting [9]) and in experiment [5] (setting [10]) was 6.25 µg/mL each time.

“FIRIARLLIF [Ctryamp polypeptide mutant 11, FIRIARLLIF]”: the MIC in experiment [1] and in experiment [2] was more than 25 µg/mL in each case.

Take FIRIARLLKIF [Ctryamp-R9K, FIRIARLLKIF]: the “Minimum inhibitory concentration MIC” value in experiment [4] (setting [9]) worked out at 6.25 µg/mL; in experiment [5] (setting [10]), 12.5 µg/mL.

As to “FIRIARLLKRIF [Ctryamp polypeptide mutant 18, FIRIARLLKRIF]”, the minimum inhibitory concentration (MIC) in experiment [1] was 6.25 µg/mL; in experiment [2], 12.5 µg/mL.

For “FIRIARLLRIFFIRIARLLRIF [Ctryamp polypeptide mutant 31]”, the MIC in experiment [1] and in experiment [2] was more than 25 µg/mL throughout.

For “FIRIARLLRKIF [Ctryamp polypeptide mutant 17, FIRIARLLRKIF]”, the MIC was found to be 6.25 µg/mL in experiment [1] and 12.5 µg/mL in experiment [2].

For the substance “FIRIARLRIF [Ctryamp polypeptide mutant 8, FIRIARLRIF]”, the figures for the MIC in experiment [1] and in experiment [2] were 25 µg/mL and 12.5 µg/mL, respectively.

For the substance “FIRKIARLLRIF [Ctryamp polypeptide mutant 19, FIRKIARLLRIF]”, the MIC in experiment [1] and in experiment [2] was 6.25 µg/mL throughout.

Consider “FIRLRIF [Ctryamp polypeptide mutant 14, FIRLRIF]”, for which the minimum inhibitory concentration (MIC) in experiment [1] and in experiment [2] was more than 25 µg/mL in each case.

For “FIRRLLRIF [Ctryamp polypeptide mutant 12, FIRRLLRIF]”, the results for the MIC in experiment [1] and in experiment [2] were 12.5 µg/mL and 25 µg/mL, respectively.

Turning to “FIRRLRIF [Ctryamp polypeptide mutant 13, FIRRLRIF]”, the MIC in experiment [1] and in experiment [2] was more than 25 µg/mL each time.

Consider “FRIARLLRIF [Ctryamp polypeptide mutant 9, FRIARLLRIF]”, for which the MIC in experiment [1] worked out at 12.5 µg/mL; in experiment [2], 6.25 µg/mL.

For the substance “GFIRIARLLRIF [Ctryamp polypeptide mutant 16, GFIRIARLLRIF]”, the minimal inhibitory concentration (MIC) in experiment [1] and in experiment [2] was 6.25 µg/mL each time.

On to “IARLLRIFFIRIARLLRIF [Ctryamp polypeptide mutant 28, IARLLRIFFIRIARLLRIF]”, for which the MIC in experiment [1] and in experiment [2] was more than 25 µg/mL throughout.

With “IFFIRIARLLRIF [Ctryamp polypeptide mutant 22, IFFIRIARLLRIF]”, the MIC in experiment [1] was 12.5 µg/mL; in experiment [2], more than 25 µg/mL.

For “IRIARLLRIFFIRIARLLRIF [Ctryamp polypeptide mutant 30]”, the MIC in experiment [1] and in experiment [2] was more than 25 µg/mL in each case.

“LLRIFFIRIARLLRIF [Ctryamp polypeptide mutant 25, LLRIFFIRIARLLRIF]”: the values for the MIC in experiment [1] and in experiment [2] were 25 µg/mL and more than 25 µg/mL, respectively.

With “LRIFFIRIARLLRIF [Ctryamp polypeptide mutant 24, LRIFFIRIARLLRIF]”, the MIC in experiment [1] is 25 µg/mL; in experiment [2], more than 25 µg/mL.

In the case of “RIARLLRIFFIRIARLLRIF [Ctryamp polypeptide mutant 29]”, the MIC in experiment [1] and in experiment [2] was more than 25 µg/mL throughout.

Turning to “RIFFIRIARLLRIF [Ctryamp polypeptide mutant 23, RIFFIRIARLLRIF]”, the MIC in experiment [1] and in experiment [2] was 12.5 µg/mL throughout.

Consider “RLLRIF [Ctryamp polypeptide mutant 15, RLLRIF]”, for which the minimal inhibitory concentration (MIC) in experiment [1] and in experiment [2] was more than 25 µg/mL throughout.

Turning to “RLLRIFFIRIARLLRIF [Ctryamp polypeptide mutant 26, RLLRIFFIRIARLLRIF]”, the MIC in experiment [1] and in experiment [2] was more than 25 µg/mL in each case.

In general, MIC refers to the smallest concentration in the dilution series that meets the test's criterion for growth inhibition.

Source of the values: patent publication US10654895B2, “Polypeptide, DNA molecule encoding the polypeptide, vector, preparation method and use” (WUHAN MORE BIOTECHNOLOGY CO., LTD., priority 2013, dated 2020).
